Several values for one entry are separate records, joined by “and”; a condition that tells them apart may be missing. Equal values may be shown once.
Molecular target: 3',5'-cyclic-AMP phosphodiesterase 4A (Homo sapiens, UniProt P27815)
Assay: Inhibition of human full length recombinant PDE4A1A using FAM-cAMP as substrate after 30 mins by fluorescence based spectrophotometric method

3',5'-cyclic-AMP phosphodiesterase 4A, sequence (P27815 whole entry): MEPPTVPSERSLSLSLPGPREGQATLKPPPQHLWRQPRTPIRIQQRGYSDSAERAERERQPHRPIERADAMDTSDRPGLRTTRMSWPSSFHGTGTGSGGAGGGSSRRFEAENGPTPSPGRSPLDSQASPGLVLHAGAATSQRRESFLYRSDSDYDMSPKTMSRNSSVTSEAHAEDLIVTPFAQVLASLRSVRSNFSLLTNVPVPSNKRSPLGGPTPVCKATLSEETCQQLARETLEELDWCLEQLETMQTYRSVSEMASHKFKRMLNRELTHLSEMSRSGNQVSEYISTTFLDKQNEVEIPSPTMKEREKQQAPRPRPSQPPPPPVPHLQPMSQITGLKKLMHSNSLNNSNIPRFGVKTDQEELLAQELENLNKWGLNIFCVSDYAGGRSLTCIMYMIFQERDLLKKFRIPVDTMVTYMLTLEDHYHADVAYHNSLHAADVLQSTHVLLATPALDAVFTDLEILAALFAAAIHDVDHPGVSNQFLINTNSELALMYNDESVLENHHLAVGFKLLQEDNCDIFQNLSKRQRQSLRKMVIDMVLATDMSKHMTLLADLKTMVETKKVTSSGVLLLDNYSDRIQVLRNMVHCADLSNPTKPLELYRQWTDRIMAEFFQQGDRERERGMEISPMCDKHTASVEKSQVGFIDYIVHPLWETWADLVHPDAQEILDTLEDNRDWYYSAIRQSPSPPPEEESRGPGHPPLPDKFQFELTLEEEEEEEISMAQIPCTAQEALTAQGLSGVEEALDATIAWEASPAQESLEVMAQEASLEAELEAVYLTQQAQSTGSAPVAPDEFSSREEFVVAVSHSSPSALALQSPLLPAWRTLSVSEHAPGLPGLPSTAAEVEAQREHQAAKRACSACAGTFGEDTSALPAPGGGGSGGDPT

## CCCn1c(=O)c2ccc(N)nc2n(-c2cc(OC)ccc2OC)c1=O
  IC50: 70 µM and 125 µM

Source: ChEMBL document CHEMBL4043107, “Stable C-N axial chirality in 1-aryluracil scaffold and differences in in vitro metabolic clearance between atropisomers of PDE4 inhibitor” (Bioorg Med Chem, 2017)
